Target: one or more of HDAC-4, HDAC-5, HDAC-6, HDAC-7, HDAC-8, HDAC-9, HDAC-10 and HDAC-11
Assay: Inhibition of histone deacetylase enzymatic activity (summary statement over isoforms)
Format: biochemical
Conditions: Table 3, selected examples; HDAC isoform not given
How it was run: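 HDAC enzyme mix with compound was preincubated 5 min at room temperature. Reaction was started at 37 °C with Boc-Lys(trifluoroacetyl)-AMC substrate and run 20-30 min. It was stopped with trypsin (1 mg/mL) plus a known HDAC inhibitor to release the fluorogenic AMC.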

## Cn1cnc(S(=O)(=O)N2CCCN(C(C(=O)NO)c3ccccc3)CC2)c1 (stereo not drawn) [Compound 2-39, N-hydroxy-2-(4-(1-methyl-1H-imidazol-4-ylsulfonyl)-1,4-diazepan-1-yl)-2-phenylacetamide]
  IC50: 1000 to 15000 nM

## O=C(NO)C(Oc1ccc(C(F)(F)F)cc1)c1ccccc1 (stereo not drawn) [Compound 7-44, N-hydroxy-2-phenyl-2-(4-(trifluoromethyl)phenoxy)acetamide]
  IC50: 1000 to 15000 nM

## O=C(NO)C(c1ccccc1)N1CCN(Cc2cccnc2)CC1 (stereo not drawn) [Compound 2-40, N-hydroxy-2-phenyl-2-(4-(pyridin-3-ylmethyl)piperazin-1-yl)acetamide]
  IC50: 1000 to 15000 nM

## O=C(NO)C(c1ccccc1)N1CCN(c2ccccn2)CC1 (stereo not drawn) [Compound 5-73, N-hydroxy-2-phenyl-2-(4-(pyridin-2-yl)piperazin-1-yl)acetamide]
  IC50: < 1000 nM

## O=C(NO)C(c1ccccc1)N1C[C@@H]2C[C@H]1CO2 (stereo partly drawn) [Compound 5-71, 2-((1S,4S)-2-oxa-5-azabicyclo[2.2.1]heptan-5-yl)-N-hydroxy-2-phenylacetamide]
  IC50: 1000 to 15000 nM

## COCCOCCOc1cccc(C(C(=O)NO)c2ccccc2)c1 (stereo not drawn) [Compound 3-89, N-hydroxy-2-(3-(2-(2-methoxyethoxy)ethoxy)phenyl)-2-phenylacetamide]
  IC50: < 1000 nM

## O=C(NO)C(c1ccc(F)cc1)c1ccc(N2CCOCC2)cc1 (stereo not drawn) [Compound 5-90, 2-(4-fluorophenyl)-N-hydroxy-2-(4-morpholinophenyl)acetamide]
  IC50: < 1000 nM

## O=C(NO)C(c1ccccc1)c1cccc(OCCN2CCCC2)c1 (stereo not drawn) [Compound 3-19, N-hydroxy-2-phenyl-2-(3-(2-(pyrrolidin-1-yl)ethoxy)phenyl)acetamide]
  IC50: < 1000 nM

## CCN(CCN(C)C)c1ccc(C(C(=O)NO)c2ccccc2)cc1 (stereo not drawn) [Compound 6-43]
  IC50: < 1000 nM

## O=C(Nc1ccc(C(C(=O)NO)c2ccccc2)cc1)c1ccc(F)cc1 (stereo not drawn) [Compound 2-61, 4-fluoro-N-(4-(2-(hydroxyamino)-2-oxo-1-phenylethyl)phenyl)benzamide]
  IC50: < 1000 nM

## Cc1ccc(OC(C(=O)NO)c2ccccc2)c(Cl)c1 (stereo not drawn) [Compound 7-20, 2-(2-chloro-4-methylphenoxy)-N-hydroxy-2-phenylacetamide]
  IC50: 1000 to 15000 nM

## Cc1[nH]c2ccccc2c1CN1CCC(Oc2ccc(C(C(=O)NO)c3ccccc3)cc2)CC1 (stereo not drawn) [Compound 5-132, N-hydroxy-2-(4-(1-((2-methyl-1H-indol-3-yl)methyl)piperidin-4-yloxy)phenyl)-2-phenylacetamide]
  IC50: < 1000 nM

## C=CCOc1ccc(C(C(=O)NO)c2ccccc2)cc1 (stereo not drawn) [Compound 3-46, 2-(4-(allyloxy)phenyl)-N-hydroxy-2-phenylacetamide]
  IC50: < 1000 nM

## O=C(NO)C(c1ccccc1)c1ccc(NS(=O)(=O)c2cccs2)cc1 (stereo not drawn) [Compound 2-90, N-hydroxy-2-phenyl-2-(4-(thiophene-2-sulfonamido)phenyl)acetamide]
  IC50: < 1000 nM

## COc1ccc(C(=O)Nc2cccc(C(C(=O)NO)c3ccccc3)c2)cc1 (stereo not drawn) [Compound 2-69, N-(3-(2-(hydroxyamino)-2-oxo-1-phenylethyl)phenyl)-4-methoxybenzamide]
  IC50: < 1000 nM

## Cc1ccsc1C(=O)Nc1ccc(C(C(=O)NO)c2ccccc2)cc1 (stereo not drawn) [Compound 2-65, N-(4-(2-(hydroxyamino)-2-oxo-1-phenylethyl)phenyl)-3-methylthiophene-2-carboxamide]
  IC50: < 1000 nM

## O=C(NO)C(c1ccccc1)c1nnc(-c2ccc(Br)cc2)s1 (stereo not drawn) [Compound 1-39, 2-(5-(4-bromophenyl)-1,3,4-thiadiazol-2-yl)-N-hydroxy-2-phenylacetamide]
  IC50: < 1000 nM

## Cc1ccccc1C(C(=O)NO)c1ccc(N2CCOCC2)cc1 (stereo not drawn) [Compound 6-19, N-hydroxy-2-(4-morpholionphenyl)-2-o-tolylacetamide]
  IC50: < 1000 nM

## COc1ccc(-c2cccc(C(C(=O)NO)c3ccccc3)c2)cc1OC (stereo not drawn) [Compound 2-106, 2-(3′,4′-dimethoxybiphenyl-3-yl)-N-hydroxy-2-phenylacetamide]
  IC50: < 1000 nM

## O=C(NO)C(c1ccccc1)c1cccc(N2CCN(c3ccc(F)cc3)CC2)c1 (stereo not drawn) [Compound 3-78, 2-(3-(4-(4-fluorophenyl)piperazin-1-yl)phenyl)-N-hydroxy-2-phenylacetamide]
  IC50: 1000 to 15000 nM

## O=C(Nc1ccc(C(C(=O)NO)c2ccccc2)cc1)c1cccc(Cl)c1 (stereo not drawn) [Compound 2-72, 3-chloro-N-(4-(2-(hydroxyamino)-2-oxo-1-phenylethyl)phenyl)benzamide]
  IC50: < 1000 nM

## O=C(Nc1cccc(C(C(=O)NO)c2ccccc2)c1)c1ccccc1 (stereo not drawn) [Compound 2-56, N-(3-(2-(hydroxyamino)-2-oxo-1-phenylethyl)phenyl)benzamide]
  IC50: 1000 to 15000 nM

## O=C(NO)C(c1ccccc1)c1cccc(OCC2CCCCC2)c1 (stereo not drawn) [Compound 3-32, 2-(3-(cyclohexylmethoxy)phenyl)-N-hydroxy-2-phenylacetamide]
  IC50: 1000 to 15000 nM

## O=C(NO)C(c1ccccc1)c1cccc(OCc2cccc(OC(F)(F)F)c2)c1 (stereo not drawn) [Compound 3-87, N-hydroxy-2-phenyl-2-(3-(3-(trifluoromethoxy)benzyloxy)phenyl)acetamide]
  IC50: 1000 to 15000 nM

## O=C(NO)C(c1ccccc1)c1cccc(-c2ccncc2)c1 (stereo not drawn) [Compound 5-30, N-hydroxy-2-phenyl-2-(3-(pyridin-4-yl)phenyl)acetamide]
  IC50: < 1000 nM

## O=C(NO)C(c1ccccc1)C1CCN(c2ncccn2)CC1 (stereo not drawn) [Compound 5-126, N-hydroxy-2-phenyl-2-(1-(pyrimidin-2-yl)piperidin-4-yl)acetamide]
  IC50: 1000 to 15000 nM

## Cc1cc(C)nc(N2CCN(C(C(=O)NO)c3ccccc3)CC2)n1 (stereo not drawn) [Compound 5-80, 2-(4-(4,6-dimethylpyrimidin-2-yl)piperazin-1-yl)-N-hydroxy-2-phenylacetamide]
  IC50: < 1000 nM

## O=C(NO)C(Oc1ccc(F)c(Cl)c1)c1ccccc1 (stereo not drawn) [Compound 7-34, 2-(3-chloro-4-fluorophenoxy)-N-hydroxy-2-phenylacetamide]
  IC50: 1000 to 15000 nM

## O=C(NO)C(c1ccccc1)n1cc(Cc2ccccc2)nn1 (stereo not drawn) [Compound 1-35, 2-(4-benzyl-1H-1,2,3-triazol-1-yl)-N-hydroxy-2-phenylacetamide]
  IC50: < 1000 nM

## COc1ccc(C(C(=O)NO)c2ccccc2)cc1 (stereo not drawn) [Compound 3-43, N-hydroxy-2-(4-methoxyphenyl)-2-phenylacetamide]
  IC50: < 1000 nM

## O=C(COc1ccccc1)Nc1cccc(C(C(=O)NO)c2ccccc2)c1 (stereo not drawn) [Compound 2-68, N-hydroxy-2-(3-(2-phenoxyacetamido)phenyl)-2-phenylacetamide]
  IC50: < 1000 nM

## O=C(NO)C(c1ccccc1)c1cccc(OCc2ccccc2)c1 (stereo not drawn) [Compound 2-6, 2-(3-(benzyloxy)phenyl)-N-hydroxy-2-phenylacetamide]
  IC50: < 1000 nM

## O=C(NO)C(c1ccccc1)c1nnc(-c2ccccc2)s1 (stereo not drawn) [Compound 5-19, N-hydroxy-2-phenyl-2-(5-phenyl-1,3,4-thiadiazol-2-yl)acetamide]
  IC50: 1000 to 15000 nM

## O=C(CC(c1ccccc1)c1ccccc1)NO [Compound 1-6, N-hydroxy-3,3-diphenylpropanamide]
  IC50: < 1000 nM

## O=C(Nc1cccc(C(C(=O)NO)c2ccccc2)c1)c1ccc2c(c1)OCO2 (stereo not drawn) [Compound 2-76, N-(3-(2-(hydroxyamino)-2-oxo-1-phenylethyl)phenyl)benzo[d][1,3]dioxole-5-carboxamide]
  IC50: < 1000 nM

## O=C(NO)C(c1ccccc1)N1CCC(c2ccccc2)CC1 (stereo not drawn) [Compound 1-44, N-hydroxy-2-phenyl-2-(4-phenylpiperidin-1-yl)acetamide]
  IC50: < 1000 nM

## O=C(NO)C(c1ccccc1)c1cccc(OC/C=C/c2ccccc2)c1 (stereo not drawn) [Compound 3-9, (E)-2-(3-(cinnamyloxy)phenyl)-N-hydroxy-2-phenylacetamide]
  IC50: < 1000 nM

## O=C(NO)C(c1ccccc1)c1ccc(N2CCCC2=O)cc1 (stereo not drawn) [Compound 5-106, N-hydroxy-2-(4-(2-oxopyrrolidin-1-yl)phenyl)-2-phenylacetamide]
  IC50: < 1000 nM

## O=C(NO)C(c1ccccc1)c1ccc(NCC2CCCCC2)cc1 (stereo not drawn) [Compound 2-82, 2-(4-(cyclohexylmethylamino)phenyl)-N-hydroxy-2-phenylacetamide]
  IC50: < 1000 nM

## O=C(NO)C(c1ccccc1)c1cccc(NCC2CCCCC2)c1 (stereo not drawn) [Compound 2-83, 2-(3-(cyclohexylmethylamino)phenyl)-N-hydroxy-2-phenylacetamide]
  IC50: 1000 to 15000 nM

## CCN(CC)c1ccc(C(C(=O)NO)c2ccccc2)cc1 (stereo not drawn) [Compound 1-19, 2-(4-(diethylamino)phenyl)-N-hydroxy-2-phenylacetamide]
  IC50: < 1000 nM

## COc1cccc(NC(=O)N2CCCN(C(C(=O)NO)c3ccccc3)CC2)c1 (stereo not drawn) [Compound 2-37, 4-(2-(hydroxyamino)-2-oxo-1-phenylethyl)-N-(3-methoxyphenyl)-1,4-diazepane-1-carboxamide]
  IC50: 1000 to 15000 nM

## O=C(NO)C(c1ccccc1)c1ccc(N2CCC(Cc3ccccc3)CC2)cc1 (stereo not drawn) [Compound 5-51, 2-(4-(4-benzylpiperidin-1-yl)phenyl)-N-hydroxy-2-phenylacetamide]
  IC50: < 1000 nM

## O=C(NO)C(c1ccccc1)c1ccc(N2CCCCC2)cc1 (stereo not drawn) [Compound 5-70, N-hydroxy-2-phenyl-2-(4-(piperidin-1-yl)phenyl)acetamide]
  IC50: < 1000 nM

## O=C(NO)C(c1ccccc1)c1ccc(-c2ccc3c(c2)CCO3)cc1 (stereo not drawn) [Compound 2-113, 2-(4-(2,3-dihydrobenzofuran-5-yl)phenyl)-N-hydroxy-2-phenylacetamide]
  IC50: < 1000 nM

## O=C(NO)/C(=C/c1ccccc1)c1ccccc1 [Compound 1-21, (E)-N-hydroxy-2,3-diphenylacrylamide]
  IC50: < 1000 nM

## 2-(4-(benzo[d][1,3]dioxol-5-ylmethylbenzo[d][1,3]dioxol-5-ylmethoxy)phenyl)-N-hydroxy-2-phenylacetamide [Compound 3-11]
  IC50: < 1000 nM

## O=C(NO)C(c1ccccc1)N1CCC(c2nc(-c3ccc4c(c3)OCO4)no2)CC1 (stereo not drawn) [Compound 2-44, 2-(4-(3-(benzo[d][1,3]dioxol-5-yl)-1,2,4-oxadiazol-5-yl)piperidin-1-yl)-N-hydroxy-2-phenylacetamide]
  IC50: < 1000 nM

Reference: patent US9096565B2, “Inhibitors of histone deacetylase” (MethylGene Inc., priority 2007, dated 2015)
